According to the supplement of paper PMC10307832:

Legend:
Assay in all cases: relative viability (nuclei count vs DMSO), 5 days (fraction); higher = more cells survive
IDH-C35 = compound: Cc1ccccc1C(C(=O)NC1CCCCC1)N(C(=O)Cn1ccnc1C)c1cccc(F)c1 [IDH-C35]
Method in brief: (§1)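 A plate was accepted only when its control CV was below 25% and the cells had doubled at least once. Viability is defined from nuclear counts as treated wells divided by vehicle wells, with the median taken across plates. That median covers lung cancer cell lines grown in 1536-well plates, dosed by pinning at five √10-spaced library-drug concentrations, and counted in MetaXpress from 4× Hoechst images after 5 days.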

[1] = compound: CC1=C(C(=NN1)C)CC2=C(C3=C(S2)N(C(=O)N(C3=O)C)CC(C)C)C(=O)N4C[C@@H](CO4)O
Method in brief: as §1

IDH-C35 + Pemetrexed = compound: Cc1ccccc1C(C(=O)NC1CCCCC1)N(C(=O)Cn1ccnc1C)c1cccc(F)c1 [IDH-C35] + Nc1nc2[nH]cc(CCc3ccc(C(=O)N[C@@H](CCC(=O)O)C(=O)O)cc3)c2c(=O)[nH]1 [Pemetrexed] (partner 0.2 µM)
Method in brief: (§2)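 Five library-drug doses in √10 steps were combined with a fixed anchor-drug dose, or a single drug was given alone, by pin tool to lung cancer cell lines in 1536-well plates the day after seeding. Nuclei were stained and counted after 5 days. Relative viability is the nuclei count in treated wells over that in vehicle wells, taken as the median of duplicate plates.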

[2] = compound: CC1=C(C(=NN1)C)CC2=C(C3=C(S2)N(C(=O)N(C3=O)C)CC(C)C)C(=O)N4C[C@@H](CO4)O + COc1cccc2cc(-c3nc([C@H]4CC[C@H](C(=O)O)CC4)n4ncnc(N)c34)[nH]c12 [OSI-027] (partner 0.5 µM)
Method in brief: as §2

| Cell Line | relative viability (IDH-C35; 0.08 µM) | relative viability (IDH-C35; 0.253 µM) | relative viability (IDH-C35; 0.8 µM) | relative viability (IDH-C35; 2.53 µM) | relative viability (IDH-C35; 8 µM) | relative viability ([1]; 0.0025 µM) | relative viability ([1]; 0.007906 µM) | relative viability ([1]; 0.025 µM) | relative viability ([1]; 0.07906 µM) | relative viability ([1]; 0.25 µM) | relative viability (IDH-C35 + Pemetrexed; first compound 0.08 µM) | relative viability (IDH-C35 + Pemetrexed; first compound 0.253 µM) | relative viability (IDH-C35 + Pemetrexed; first compound 0.8 µM) | relative viability (IDH-C35 + Pemetrexed; first compound 2.53 µM) | relative viability (IDH-C35 + Pemetrexed; first compound 8 µM) | relative viability ([2]; first compound 0.0025 µM) | relative viability ([2]; first compound 0.007906 µM) | relative viability ([2]; first compound 0.025 µM) | relative viability ([2]; first compound 0.07906 µM) | relative viability ([2]; first compound 0.25 µM) |
| --- | --- | --- | --- | --- | --- | --- | --- | --- | --- | --- | --- | --- | --- | --- | --- | --- | --- | --- | --- | --- |
| 201T | 0.985 | 0.983 | 1.01 | 1 | 0.958 | 1.04 | 0.983 | 0.982 | 0.96 | 0.988 | 0.329 | 0.351 | 0.367 | 0.343 | 0.321 | 0.843 | 0.79 | 0.72 | 0.642 | 0.71 |
| A549 | 1 | 0.966 | 0.956 | 0.918 | 0.974 | 1.04 | 1.11 | 0.931 | 0.953 | 1.04 | – | – | – | – | – | – | – | – | – | – |
| A-427 | 1.06 | 1.01 | 0.926 | 0.991 | 1.03 | 1.04 | 1.1 | 0.996 | 1.05 | 1.1 | 0.952 | 0.981 | 0.899 | 1.02 | 1.04 | 0.444 | 0.569 | 0.425 | 0.549 | 0.477 |
| ABC-1 | 0.953 | 0.938 | 0.91 | 1.03 | 0.992 | 0.978 | 0.921 | 0.714 | 0.994 | 0.902 | – | – | – | – | – | 0.55 | 0.459 | 0.583 | 0.517 | 0.52 |
| BEN | 0.964 | 0.97 | 0.904 | 0.972 | 1.01 | 0.885 | 0.949 | 0.735 | 0.788 | 0.865 | 0.633 | 0.929 | 0.73 | 0.762 | 0.857 | 0.31 | 0.293 | 0.357 | 0.317 | 0.292 |
| CAL-12T | 0.982 | 1.04 | 0.982 | 1.05 | 0.979 | 1.03 | 1.03 | 0.958 | 1.12 | 1.13 | 1.23 | 1.14 | 1.37 | 1.15 | 1.12 | 0.746 | 0.928 | 0.538 | 0.661 | 0.806 |
| COR-L23 | 1.1 | 1.08 | 1.01 | 0.995 | 0.978 | 0.965 | 1.08 | 0.919 | 0.933 | 0.976 | 0.18 | 0.205 | 0.2 | 0.201 | 0.173 | 0.876 | 0.761 | 0.68 | 0.678 | 0.793 |
| COR-L 105 | 0.897 | 0.921 | 0.926 | 0.863 | 0.91 | 0.952 | 0.976 | 0.897 | 0.897 | 1.02 | 1.03 | 1.19 | 0.954 | 0.912 | 1 | 0.741 | 0.694 | 0.663 | 0.838 | 0.679 |
| Calu-6 | 1.05 | 0.968 | 1.03 | 0.997 | 0.937 | 1.04 | 1.01 | 0.982 | 1.03 | 1.03 | – | – | – | – | – | – | – | – | – | – |
| ChaGo-K-1 | 0.994 | 0.941 | 0.993 | 0.966 | 1.02 | 0.989 | 0.98 | 0.901 | 0.969 | 1.06 | 0.244 | 0.27 | 0.273 | 0.265 | 0.248 | 0.613 | 0.592 | 0.602 | 0.555 | 0.563 |
| EBC-1 | 1.05 | 1.01 | 0.992 | 0.981 | 0.96 | 1.01 | 1.07 | 0.868 | 1.08 | 1.05 | – | – | – | – | – | – | – | – | – | – |
| EKVX | 0.991 | 0.991 | 0.922 | 0.861 | 0.997 | 1.08 | 1.03 | 0.952 | 0.883 | 0.989 | 0.443 | 0.332 | 0.395 | 0.369 | 0.42 | 0.677 | 0.712 | 0.666 | 0.716 | 0.592 |
| EMC-BAC-2 | 0.962 | 0.988 | 1 | 0.987 | 1.03 | 1.07 | 1.11 | 0.898 | 0.995 | 1.05 | 0.457 | 0.477 | 0.473 | 0.463 | 0.398 | 0.416 | 0.403 | 0.394 | 0.43 | 0.416 |
| EPLC-272H | 0.935 | 1.04 | 0.898 | 0.76 | 0.882 | 1.02 | 0.906 | 0.968 | 0.974 | 1.01 | 0.276 | 0.388 | 0.397 | 0.34 | 0.394 | 0.275 | 0.225 | 0.312 | 0.314 | 0.308 |
| H3255 | 0.955 | 1 | 0.988 | 0.978 | 1.11 | 1.01 | 0.925 | 0.866 | 0.94 | 1.1 | 0.595 | 0.589 | 0.573 | 0.632 | 0.499 | 0.609 | 0.565 | 0.62 | 0.604 | 0.602 |
| HARA | 1 | 0.949 | 0.915 | 1.03 | 0.931 | 1.03 | 1.05 | 1.01 | 1.02 | 1 | 0.278 | 0.239 | 0.326 | 0.256 | 0.254 | 0.548 | 0.565 | 0.513 | 0.506 | 0.489 |
| HCC-15 | 1 | 0.97 | 0.956 | – | 0.925 | 1.04 | 1.03 | 1.01 | 1.04 | 1.12 | 0.206 | 0.235 | 0.223 | 0.226 | 0.227 | 0.707 | 0.705 | 0.691 | 0.737 | 0.784 |
